Ends that are not written are not given here.
Legend:
[1] = Electronic tongue analysis (Taste-Sensing System SA 402B); parameters: unit not given here; conditions: reference solution 30 mM KCl + 0.3 mM tartaric acid as baseline, first measurement excluded; for Umami: sensor AAE; for Umami / Bitter / Sweet: detection threshold 0, room temperature; for Umami / Bitter / Sour / Salty: four replicates; for Sour: detection threshold -13, room temperature; for Salty: detection threshold -6, room temperature; for Sweet: measured five times
Outline: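 Samples were tested at 0.1 and 1.0 mg/mL on an SA 402B e-tongue fitted with sourness, saltiness, bitterness, sweetness and umami sensors, with 30 mM KCl/0.3 mM tartaric acid as reference and baseline. Thresholds were −13 for sour, −6 for salty and 0 for the rest. Runs at room temperature: four replicates, five for sweetness, first reading discarded.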

[2] = system: human bronchial epithelial cells (BEAS-2B)
[3] = system: human embryonic kidney cells (HEK293T)
[4] = system: human pancreatic ductal epithelial cells (HPNE)
Procedure: The cytotoxicity of 73 synthetic peptides was evaluated using four human cell lines: human pancreatic ductal epithelial cells (HPNE), human embryonic kidney cells (HEK293T), human umbilical vein endothelial cells (HUVEC), and human bronchial epithelial cells (BEAS-2B). When cell density reached 70% confluence, the complete culture medium was replaced with serum-free maintenance medium, and peptides were added at a final concentration of 100 μM for 36 h. Control groups received only serum-free maintenance medium without peptides. Cell proliferation was assessed using the CCK-8 assay kit (Solarbio, CA1210) according to the manufacturer’s instructions.

[5] = system: human umbilical vein endothelial cells (HUVEC)

Row | Substance | Umami ([1]; peptide 1 mg/mL) | Bitter ([1]; sensor C00, peptide 1 mg/mL) | Sour ([1]; sensor CA0, peptide 0.1 mg/mL) | Sour ([1]; sensor CA0, peptide 1 mg/mL) | Salty ([1]; sensor CT0, peptide 1 mg/mL) | Sweet ([1]; sensor GL1, peptide 0.1 mg/mL) | Sweet ([1]; sensor GL1, peptide 1 mg/mL) | Average cell viability, BEAS-2B [2] | Cell viability, BEAS-2B, Data1 [2] | Cell viability, BEAS-2B, Data2 [2] | Cell viability, BEAS-2B, Data3 [2] | Average cell viability, HEK293T [3] | Cell viability, HEK293T, Data1 [3] | Cell viability, HEK293T, Data2 [3] | Cell viability, HEK293T, Data3 [3] | Average cell viability, HPNE [4] | Cell viability, HPNE, Data1 [4] | Cell viability, HPNE, Data2 [4] | Cell viability, HPNE, Data3 [4] | Average cell viability, HUVEC [5] | also measured
1 | LQDVVE [TaPep24] | -3.57 | 3.73 | -4.17 | 9.09 | 4.83 | 6.22 | -4.08 | 113.59 | 103.99 | 117.45 | 119.34 | 99.02 | 102.40 | 97.85 | 96.81 | 93.71 | 94.37 | 92.98 | 93.78 | 103.54 | Cell viability, HUVEC, Data1 [5]: 91.48; Cell viability, HUVEC, Data2 [5]: 106.25; Cell viability, HUVEC, Data3 [5]: 112.88
2 | LQPDAGK [TaPep6] | -5.07 | 2.72 | -4.43 | 10.67 | 12.20 | 8.22 | -5.48 | 102.76 | 91.82 | 107.88 | 108.57 | 98.83 | 101.83 | 97.29 | 97.38 | 97.97 | 95.64 | 99.55 | 98.73 | 102.10 | Umami ([1]; peptide 0.1 mg/mL): 1.99; Bitter ([1]; sensor C00, peptide 0.1 mg/mL): 7.90; Salty ([1]; sensor CT0, peptide 0.1 mg/mL): -19.24; Cell viability, HUVEC, Data1 [5]: 91.96; Cell viability, HUVEC, Data2 [5]: 115.19; Cell viability, HUVEC, Data3 [5]: 99.15
3 | LQPSLEH [TaPep59] | -6.02 | 1.90 | -3.89 | 15.44 | 15.85 | 6.34 | -7.32 | 100.60 | 96.61 | 109.87 | 95.31 | 98.64 | 100.88 | 99.94 | 95.11 | 92.71 | 105.62 | 84.46 | 88.05 | 104.79 | Umami ([1]; peptide 0.1 mg/mL): 1.85; Bitter ([1]; sensor C00, peptide 0.1 mg/mL): 7.83; Salty ([1]; sensor CT0, peptide 0.1 mg/mL): -19.53; Cell viability, HUVEC, Data1 [5]: 97.39; Cell viability, HUVEC, Data2 [5]: 106.49; Cell viability, HUVEC, Data3 [5]: 110.48
4 | LWGPVT [TaPep72] | -4.42 | 3.83 | -4.62 | 11.06 | 7.83 | 7.58 | -5.31 | 100.50 | 118.74 | 92.32 | 90.43 | 100.76 | 102.49 | 95.02 | 104.76 | 101.26 | 115.31 | 97.84 | 90.65 | 99.47 | Umami ([1]; peptide 0.1 mg/mL): 2.15; Bitter ([1]; sensor C00, peptide 0.1 mg/mL): 7.25; Salty ([1]; sensor CT0, peptide 0.1 mg/mL): -19.66; Cell viability, HUVEC, Data1 [5]: 107.29; Cell viability, HUVEC, Data2 [5]: 101.62; Cell viability, HUVEC, Data3 [5]: 89.49
